Legend:
[1] = tested on: coagulase-negative Staphylococcus
From the text: Effect of xylitol administration to nasal mucosa on coagulase-negative Staphylococcus.
Subjects were over 18 years old. […] Twenty-one normal healthy subjects (10 male and 11 female, age 20 to 52 years) participated.
The design was a double-blind, randomized, cross-over study. Subjects were randomized to one of two groups: xylitol followed by saline or saline followed by xylitol. A culture of both anterior nares was obtained on day zero. Then subjects sprayed each nostril with a prefilled syringe of solution 4 times per day for 4 days. On the morning of day 5, subjects did their final application at breakfast time, then a nasal swab was obtained 2 hours later. No treatment was administered for the next 7 days. Subjects then repeated the protocol with the opposite solution. The saline solution was 0.9% NaCl in water (Baxter Health Care Corp., Deerfield, Ill.). The xylitol solution was 5% xylitol (304 mM) in water. The solutions were nebulized using an Accuspray syringe (Becton Dickinson Pharmaceutical Systems, Franklin Lakes, N.J.), containing 250 μl of solution. The xylitol and saline syringes were identical. The mass medium diameter of particles was ˜60 μm. It was impossible to disguise the sweet taste of xylitol.
Samples for cultures were obtained with sterile rayon swabs (Culturette Collection and Transport System, Becton Dickinson Microbiology Systems, Sparks, Md.). […] The plates were incubated at 37° C. for 24 hours and the colonies of coagulase-negative Staphylococcus colonies were identified and counted using a Cling-On Grid (Spiral Biotech, Bethesda, Md.). […]
A randomized, double-blind, cross-over study was performed. The nasal mucosa was swabbed and the number of coagulase-negative Staphylococcus was determined by culture. […] After 4 days, the number of nasal coagulase-negative Staphylococcus was counted again. […]
Analysis of variance for a cross-over design was applied on the change in bacterial count from pretreatment to post treatment. […] Thus, the comparison of xylitol vs. saline was evaluated from the data of both nostrils and both sequences.

[2] = tested on: P. aeruginosa; experiment: Antibiotic effect in Lauria-Bertani (rich) media; type: cell-based; details: Lauria-Bertani media with 100 mM xylitol
Method: (§1) FIGS. 5(A-G). Effect of xylitol on growth of different airway pathogens. A, B and C. Growth of P. aeruginosa (A), S. aureus, (B), and coagulase-negative Staphylococcus (C) were measured as O. D. M9 media alone is indicated by open triangle. Xylitol (closed circle), or succinate, mannitol, or sucrose (open circles), were added to M9 media at 100 mM as indicated. D. Nasal swabs were collected and cultured for 3 days in Lauria-Bertani media (open circles), in minimal M9 media (open squares), or in M9 media supplemented with 100 mM xylitol (closed circles). E, F and G. P. aeruginosa (E), S. aureus (F), and coagulase-negative Staphylococcus (G) were cultured in Lauria-Bertani media alone (open triangles), Lauria-Bertani media with 100 mM xylitol (closed circles), and Lauria-Bertani media containing tobramycin or levofloxacin (open circles).
(§2) To test the effect of xylitol on growth of different airway pathogens in a carbon-starved media, P. aeruginosa, S. aureus, and coagulase-negative Staphylococcus were grown overnight in Lauria-Bertani medium. The bacteria were then centrifuged and resuspended in M9 media containing either 100 mM succinate, mannitol, or sucrose, respectively, and grown overnight at 37° C. The bacteria were centrifuged and resuspended in M9 media alone. M9 media containing 100 mM xylitol, or 100 mM of the indicated metabolizable sugar, as positive control. The optical density (O.D.) was measured after 0, 1, 2, and 4 hours at 600 nm on a Beckman DU640 Spectrophotometer (Schaumburg, Ill.). To test the antibiotic effect of xylitol, P. aeruginosa, S. aureus, and coagulase-negative Staphylococcus were grown overnight in Lauria-Bertani medium. The bacteria were then centrifuged and resuspended in Lauria-Bertani media with and without 100 mM xylitol. As a positive control, antibiotics with specific activity to each of the bacteria were added to the media (40 μg/ml tobramycin or 40 μg/ml levofloxacin).

[3] = tested on: coagulase-negative Staphylococcus; experiment: Antibiotic effect in Lauria-Bertani (rich) media; type: cell-based; details: Lauria-Bertani media with 100 mM xylitol
Method: as §1, §2

[4] = tested on: S. aureus; experiment: Antibiotic effect in Lauria-Bertani (rich) media; type: cell-based; details: Lauria-Bertani media with 100 mM xylitol
Method: as §1, §2

[5] = tested on: non-CF epithelia; type: in vitro ADME, human
Method: FIGS. 1(A-C). Permeability of xylitol added to the apical surface of non-CF epithelia. Xylitol (138 mM in 60 μl) was added to the apical surface of differentiated airway epithelia at time zero. Apical liquid was removed and volume determined at times indicated. Xylitol was measured by NMR. Data are mean±SEM; n=4. Some SEM bars are hidden by symbols.
Airway epithelial cells were isolated from tracheal and bronchial tissue. Cells were seeded onto collagen-coated, semi-permeable membranes (0.6 cm^2 Millicel-HA; Millipore, Bedford, Mass.) and grown at the air-liquid interface as previously described (Smith, J. J., S. M. Travis, E. P. Greenberg, and M. J. Welsh. 1996. Cystic fibrosis airway epithelia fail to kill bacteria because of abnormal airway surface fluid. Cell. 85:229-236; and erratum 287(222); Yamaya, M., W. E. Finbeiner, S. Y. Chun, and J. H. Widdicombe. 1992. Differentiated structure and function of cultures from human tracheal epithelium. Am. J. Physiol. 262:L713-L724; Zabner, J., B. G. Zeiher, E. Friedman, and M. J. Welsh. 1996. […] All epithelia were evaluated with scanning electron microscopy for the development of a ciliated apical surface.
Proton nuclear magnetic resonance spectroscopy was used to measure the xylitol concentration in the fluid on the apical surface. […] Concentrations were then determined by comparing the measured peak integral to a standard curve for xylitol. […]

[6] = tested on: CF epithelia; experiment: Bacteria deposited into liquid covering CF epithelia; type: cell-based, human; details: bacteria grew on untreated or saline-treated epithelia
[7] = tested on: S. aureus; experiment: Growth in carbon-starved M9 media (O.D.); type: cell-based; details: M9 media supplemented at 100 mM
Method: as §1
To test the effect of xylitol on growth of different airway pathogens in a carbon-starved media, P. aeruginosa, S. aureus, and coagulase-negative Staphylococcus were grown overnight in Lauria-Bertani medium. The bacteria were then centrifuged and resuspended in M9 media containing either 100 mM succinate, mannitol, or sucrose, respectively, and grown overnight at 37° C. […] The optical density (O.D.) was measured after 0, 1, 2, and 4 hours at 600 nm on a Beckman DU640 Spectrophotometer (Schaumburg, Ill.). […]

With `OC[C@@H](O)[C@H](O)[C@@H](O)CO` [xylitol] the “adverse effects reported by subjects” value ([1]; in vivo) was “none of the subjects tested reported adverse effects”, the “median change in coagulase-negative Staphylococcus count” value ([1]; normal subjects, nasal spray 4 times a day for 4 days, interquartile range in brackets) was 500 (interquartile range of 1152 to 120) cfu and the “average reduction of coagulase-negative Staphylococcus in treated nostrils” value ([1]; normal subjects, nasal spray 250 μl per nostril 4 times a day for 4 days, p=0.05 vs saline) was 597±242 cfu. For the same molecule, the “inhibition of growth of P. aeruginosa” value [2] was “did not inhibit the growth”, the “inhibition of growth of coagulase-negative Staphylococcus” value [3] was “did not inhibit the growth” and the “inhibition of growth of S. aureus” value [4] was “did not inhibit the growth”. The xylitol permeability [5] was “not high”, the “time after which approximately half the applied xylitol would diffuse to the basolateral surface” value ([5]; human, 138 mM) was roughly 11 h and the “fate of bacteria deposited into xylitol-containing liquid covering CF epithelia” value [6] was “the bacteria were killed”. For the same molecule, the “growth of S. aureus” value [7] was “failed to support growth”.

From patent US6716819B2, “Use of xylitol to reduce ionic strength and activate endogenous antimicrobials for prevention and treatment of infections” (University of Iowa Research Foundation, priority 2000, dated 2004)
